The source of these data is EP0671918B1, “COMPOSITIONS CONTAINING ACYCLOVIR-LIKE COMPOUNDS AND 2'-VINYL SUBSTITUTED NUCLEOSIDE ANALOGS FOR THE TREATMENT OF VIRAL INFECTIONS” (MERRELL PHARMACEUTICALS INC., priority 1992, dated 1994).

For assay [1], the system named is herpes simplex virus type I. Description: Anti-herpes viral yield reduction in vero cells, plaque method. It is filed as cell-based, herpes simplex virus KOS (type 1). Particulars: 24 hours post infection. The procedure: (§1) Two strains of herpes simplex virus are used: KOS (type 1) and EKC (type 2). Prepare all of the virus stocks by infecting vero cells at an input multiplicity of 0.1 PFU/cell. Sonically disrupt the cultures at 20-24 hours post infection and store them at -70°C after inclusion of DMSO to 5% (v/v) to prevent freeze damage.
(§2) Determine the anti-herpes viral activity of the compounds by a known method (Ash and Diekema, Antiviral Research, 8: 71-83 (1987)). For example, infect vero cells with each strain of HSV at 1 PFU/Cell. At the end of the absorption period (60 min., 36°C), remove the unattached virus. Wash cell sheets twice with Eagles basal medium (EBM) and 2% fetal calf serum (FCS). Add fresh medium containing the test compounds. Finally, determine viral yields at 24 hours post infection by plaque method on vero cells with methyl cellulose overlay (0.5% in EBM + 1% FCS).

The subject of assay [2] is herpes simplex virus type II. Described as above. It is filed as cell-based, herpes simplex virus EKC (type 2). Particulars: 24 hours post infection; for Virus Titer: Viral Control 1.24x10^5. The procedure:
as §1, §2

Setting [3] is: Single agent, Conc. 5.0 ng/ml, Viral Control 2.6x10^5.

What is called inhibition is the share of the control response that was lost under treatment. A lower inhibition goes with a weak effect. As for `Nc1nc2c(ncn2COCCO)c(=O)[nH]1` [ACV, 9-[(2-hydroxyethoxy)methyl]guanine, reference compound], in assay [1] (Single agent, Conc. 2.5 ng/ml), the inhibition at 0.0025 µg/mL amounted to 0%. The “Virus Titer” value in assay [1] (Single agent, Conc. 2.5 ng/ml, Viral Control 2.6x10^5) is 3x10^5 P.F.U./ml; in assay [1] (setting [3]), 1.85x10^5 P.F.U./ml. In assay [1] (Single agent, Conc. 5.0 ng/ml), this compound showed an inhibition at 0.005 µg/mL of 30%.
Take `Nc1ccn([C@@H]2O[C@H](CO)[C@@H](O)/C2=C\F)c(=O)n1` [Compound A, (E)-2'-deoxy-2'-fluoromethylidenecytidine]: the inhibition at 0.0125 µg/mL stood at 32% in assay [2] (Conc. 0.0125 ug/ml) and 0% in assay [1] (Conc. 0.0125 ug/ml). In addition, the “Virus Titer” value in assay [2] (Conc. 0.0125 ug/ml) is 8.5x10^4 P.F.U./ml; in assay [2] (Conc. 0.025 ug/ml) it was 5.5x10^3 P.F.U./ml; in assay [2] (Conc. 0.050 ug/ml), 0 P.F.U./ml; in assay [2] (Conc. 0.10 ug/ml), 0 P.F.U./ml; in assay [1] (Conc. 0.0125 ug/ml, Viral Control 3.7x10^8), 5.5x10^8 P.F.U./ml; in assay [1] (Conc. 0.025 ug/ml, Viral Control 3.7x10^8), 4.5x10^7 P.F.U./ml. Moreover, the “Virus Titer” value is 0 P.F.U./ml in assay [1] (Conc. 0.050 ug/ml, Viral Control 3.7x10^8); 0 P.F.U./ml in assay [1] (Conc. 0.10 ug/ml, Viral Control 3.7x10^8); 1.6x10^5 P.F.U./ml in assay [1] (setting [3]). In addition, the values for the inhibition at 0.025 µg/mL in assay [2] (Conc. 0.025 ug/ml) and in assay [1] (Conc. 0.025 ug/ml) were 96% and 88%, respectively. Besides, the inhibition at 0.05 µg/mL in assay [2] (Conc. 0.050 ug/ml) and in assay [1] (Conc. 0.050 ug/ml) was 100% throughout. Moreover, the inhibition at 0.1 µg/mL in assay [2] (Conc. 0.10 ug/ml) and in assay [1] (Conc. 0.10 ug/ml) was 100% each time. Moreover, testing at 0.005 µg/mL in assay [1] (Single agent, Conc. 5.0 ng/ml) gave an inhibition of 42%.
